Data published in US10030047B2 (Hoffmann-La Roche Inc., priority 2015, dated 2018).
In brackets after ≈: the same amount, converted by molar mass. Like-named read-outs stand apart in the source and are kept apart here.

System: A. baumannii strain ATCC19606
Test: Minimum inhibitory concentration (MIC) determination, microbroth dilution (CLSI)
Format: cell-based
Settings: Acinetobacter baumannii, read-out: ATCC19606 MIC
Method in brief: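 After 20 h at 35±2 °C, MIC taken visually and by OD 600 nm as the lowest concentration giving ≥80% growth inhibition. Bacteria (~5×10^5 CFU/ml) were tested per CLSI microbroth dilution against twofold serial compound dilutions in cation-adjusted Mueller Hinton broth.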

[1] = A. baumannii ATCC19606, CAMHB, read after 20 hours, >=80% growth inhibition

| SMILES | MIC [1] | MIC (ATCC19606, 20 h) |
| --- | --- | --- |
| Cc1cc(Cl)cc2c1Sc1ccccc1CN[C@@H](CCCN)C(=O)N[C@@H](CCCCN)C(=O)N(C)[C@@H](Cc1c[nH]c3ccccc13)C(=O)NC2 [Example 55, (12S,15S,18S)-15-(4-Amino-butyl)-18-(3-amino-propyl)-6-chloro-12-(1H-indol-3-ylmethyl)-4,13-dimethyl-2-thia-10,13,16,19-tetraaza-tricyclo[19.4.0.0*3,8*]pentacosa-1(25),3,5,7,21,23-hexaene-11,14,17-trione] | 0.5 µg/mL (≈ 0.696 µM) |  |
| CCN1C(=O)[C@H](CCCCN)NC(=O)[C@H](CCCN)NCc2ccccc2Sc2c(C)cccc2CNC(=O)[C@@H]1Cc1c[nH]c2ccccc12 [Example 46, (12S,15S,18S)-15-(4-Amino-butyl)-18-(3-amino-propyl)-13-ethyl-12-(1H-indol-3-ylmethyl)-4-methyl-2-thia-10,13,16,19-tetraaza-tricyclo[19.4.0.0*3,8*]pentacosa-1(21),3,5,7,22,24-hexaene-11,14,17-trione] | 1 µg/mL (≈ 1.43 µM) |  |
| Cc1ccc2c(c1)Sc1ccccc1CN[C@@H](CCCN)C(=O)N[C@@H](CCCCN)C(=O)N(C)[C@@H](Cc1c[nH]c3ccccc13)C(=O)NC2 [Example 9, (12S,15S,18S)-15-(4-Amino-butyl)-18-(3-amino-propyl)-12-(1H-indol-3-ylmethyl)-5,13-dimethyl-2-thia-10,13,16,19-tetraaza-tricyclo[19.4.0.0*3,8*]pentacosa-1(21),3,5,7,22,24-hexaene-11,14,17-trione] | 16 µg/mL (≈ 23.4 µM) |  |
| COc1ccc2c(c1)CNC(=O)[C@H](Cc1c(C)[nH]c3ccccc13)N(C)C(=O)[C@H](CCCCN)NC(=O)[C@H](CCCN)NCc1ccccc1S2 [Example 71, (12S,15S,18S)-15-(4-Amino-butyl)-18-(3-amino-propyl)-6-methoxy-13-methyl-12-(2-methyl-1H-indol-3-ylmethyl)-2-thia-10,13,16,19-tetraaza-tricyclo[19.4.0.0*3,8*]pentacosa-1(21),3,5,7,22,24-hexaene-11,14,17-trione] | 0.5 µg/mL (≈ 0.7 µM) |  |
| CN1C(=O)[C@H](COCCN)NC(=O)[C@H](COCCN)NCc2cccnc2Sc2c(Cl)ccc(C(F)(F)F)c2CNC(=O)[C@@H]1Cc1c[nH]c2ccccc12 [Example 119, (11S,14S,17S)-11,14-Bis-(2-amino-ethoxymethyl)-25-chloro-17-(1H-indol-3-ylmethyl)-16-methyl-22-trifluoromethyl-2-thia-4,10,13,16,19-pentaaza-tricyclo[19.4.0.0*3,8*]pentacosa-1(25),3,5,7,21,23-hexaene-12,15,18-trione] | 4 µg/mL (≈ 5.05 µM) |  |
| CN1C(=O)[C@H](CCCCN)NC(=O)[C@H](CCCN)NCc2cccnc2Sc2c(Cl)cc(-c3ccncn3)cc2CNC(=O)[C@@H]1Cc1c[nH]c2ccccc12 [Example 213, (11S,14S,17S)-14-(4-Amino-butyl)-11-(3-amino-propyl)-25-chloro-17-(1H-indol-3-ylmethyl)-16-methyl-23-pyrimidin-4-yl-2-thia-4,10,13,16,19-pentaaza-tricyclo[19.4.0.0*3,8*]pentacosa-1(21),3,5,7,22,24-hexaene-12,15,18-trione] | 2 µg/mL (≈ 2.55 µM) |  |
| Cc1cc(-c2cc(Cl)c3c(c2)CNC(=O)[C@H](Cc2c[nH]c4ccccc24)N(C)C(=O)[C@H](CCCCN)NC(=O)[C@H](CCCN)NCc2cccnc2S3)ccn1 [Example 105, (11S,14S,17S)-14-(4-Amino-butyl)-11-(3-amino-propyl)-25-chloro-17-(1H-indol-3-ylmethyl)-16-methyl-23-(2-methyl-pyridin-4-yl)-2-thia-4,10,13,16,19-pentaaza-tricyclo[19.4.0.0*3,8*]pentacosa-1(25),3,5,7,21,23-hexaene-12,15,18-trione] | 1 µg/mL (≈ 1.26 µM) |  |
| CN1C(=O)[C@H](CCCCN)NC(=O)[C@H](CCCN)NCc2cccnc2Sc2c(C(F)(F)F)ccc(Cl)c2CNC(=O)[C@@H]1Cc1c[nH]c2ccccc12 [Example 68, (11S,14S,17S)-14-(4-Amino-butyl)-11-(3-amino-propyl)-22-chloro-17-(1H-indol-3-ylmethyl)-16-methyl-25-trifluoromethyl-2-thia-4,10,13,16,19-pentaaza-tricyclo[19.4.0.0*3,8*]pentacosa-1(25),3,5,7,21,23-hexaene-12,15,18-trione] | 0.5 µg/mL (≈ 0.647 µM) |  |
| CN1C(=O)[C@H](CCCCN)NC(=O)[C@H](CCCN)NCc2c(F)cccc2Sc2ccccc2CNC(=O)[C@@H]1Cc1c[nH]c2ccccc12 [Example 35, (12S,15S,18S)-15-(4-Amino-butyl)-18-(3-amino-propyl)-22-fluoro-12-(1H-indol-3-ylmethyl)-13-methyl-2-thia-10,13,16,19-tetraaza-tricyclo[19.4.0.0*3,8*]pentacosa-1(21),3,5,7,22,24-hexaene-11,14,17-trione] | 8 µg/mL (≈ 11.6 µM) |  |
| C[C@@H]1NC(=O)[C@H](Cc2c[nH]c3ccccc23)N(C)C(=O)[C@H](CCCCN)NC(=O)[C@H](CCCN)NCc2ccccc2Sc2c(Cl)cccc21 [Example 60, (9S,12S,15S,18S)-15-(4-Amino-butyl)-18-(3-amino-propyl)-4-chloro-12-(1H-indol-3-ylmethyl)-9,13-dimethyl-2-thia-10,13,16,19-tetraaza-tricyclo[19.4.0.0*3,8*]pentacosa-1(25),3,5,7,21,23-hexaene-11,14,17-trione] | 2 µg/mL (≈ 2.78 µM) |  |
| Cc1[nH]c2ccccc2c1C[C@H]1C(=O)NCc2cc(Cl)cc(Cl)c2Sc2ncccc2CN[C@@H](CCCN)C(=O)N[C@@H](CCCCN)C(=O)N1C [Example 76, (11S,14S,17S)-14-(4-Amino-butyl)-11-(3-amino-propyl)-23,25-dichloro-16-methyl-17-(2-methyl-1H-indol-3-ylmethyl)-2-thia-4,10,13,16,19-pentaaza-tricyclo[19.4.0.0*3,8*]pentacosa-1(25),3(8),4,6,21,23-hexaene-12,15,18-trione] | 0.12 µg/mL (≈ 0.159 µM) |  |
| CN1C(=O)[C@H](CCCCN)NC(=O)[C@H](CCCN)NCc2cccnc2Sc2cnc(N3CCOCC3)cc2CNC(=O)[C@@H]1Cc1c[nH]c2ccccc12 [Example 204, (7S,10S,13S)-13-((1H-Indol-3-yl)methyl)-10-(4-aminobutyl)-7-(3-aminopropyl)-12-methyl-18-morpholino-6,7,9,10,12,13,15,16-octahydrodipyrido[2,3-b:4′,3′-p][1,5,8,11,14]thiatetraazacycloheptadecine-8,11,14(5H)-trione] | 64 µg/mL (≈ 84.5 µM) |  |
| Cc1[nH]c2ccccc2c1C[C@H]1C(=O)NCc2c(C(F)(F)F)ccc(Cl)c2Sc2ncccc2CN[C@@H](CCCN)C(=O)N[C@@H](CCCCN)C(=O)N1C [Example 75, (11S,14S,17S)-14-(4-Amino-butyl)-11-(3-amino-propyl)-25-chloro-16-methyl-17-(2-methyl-1H-indol-3-ylmethyl)-22-trifluoromethyl-2-thia-4,10,13,16,19-pentaaza-tricyclo[19.4.0.0*3,8*]pentacosa-1(25),3(8),4,6,21,23-hexaene-12,15,18-trione] | 0.12 µg/mL (≈ 0.152 µM) |  |
| CN1C(=O)[C@H](CCCCN)NC(=O)[C@H](CCCN)NCc2ccccc2Sc2c(Cl)ccc(F)c2CNC(=O)[C@@H]1Cc1c[nH]c2ccccc12 [Example 26, (12S,15S,18S)-15-(4-Amino-butyl)-18-(3-amino-propyl)-4-chloro-7-fluoro-12-(1H-indol-3-ylmethyl)-13-methyl-2-thia-10,13,16,19-tetraaza-tricyclo[19.4.0.0*3,8*]pentacosa-1(25),3,5,7,21,23-hexaene-11,14,17-trione] | 1 µg/mL (≈ 1.38 µM) |  |
| CN1C(=O)[C@H](CCCN)NC(=O)[C@H](CCCN)NCc2ccccc2Sc2ccccc2CNC(=O)[C@@H]1Cc1c[nH]c2ccccc12 [Example 2, (12S,15S,18S)— 15,18-Bis-(3-amino-propyl)-12-(1H-indol-3-ylmethyl)-13-methyl-2-thia-10,13,16,19-tetraaza-tricyclo[19.4.0.0*3,8*]pentacosa-1(21),3,5,7,22,24-hexaene-11,14,17-trione] |  | 4 µg/mL (≈ 6.1 µM) |
| Cc1[nH]c2ccccc2c1C[C@H]1C(=O)NCc2cc(C#N)cc(Cl)c2Sc2ncccc2CN[C@@H](CCCN)C(=O)N[C@@H](CCCCN)C(=O)N1C [Example 233, (11S,14S,17S)-14-(4-Amino-butyl)-11-(3-amino-propyl)-25-chloro-16-methyl-17-(2-methyl-1H-indol-3-ylmethyl)-12,15,18-trioxo-2-thia-4,10,13,16,19-pentaaza-tricyclo[19.4.0.0*3,8*]pentacosa-1(25),3(8),4,6,21,23-hexaene-23-carbonitrile] | 0.25 µg/mL (≈ 0.336 µM) |  |
| CN1C(=O)[C@H](CCCCN)NC(=O)[C@H](C2CCNCC2)NCc2ccccc2Sc2ccccc2CNC(=O)[C@@H]1Cc1c[nH]c2ccccc12 [Example 3, (12S,15S,18S)-15-(4-Amino-butyl)-12-(1H-indol-3-ylmethyl)-13-methyl-18-piperidin-4-yl-2-thia-10,13,16,19-tetraaza-tricyclo[19.4.0.0*3,8*]pentacosa-1(21),3,5,7,22,24-hexaene-11,14,17-trione] | 16 µg/mL (≈ 23 µM) |  |
| CN1C(=O)[C@H](CCCCN)NC(=O)[C@H](CCCN)NCc2cccnc2Sc2c(Cl)cc(-c3cnccn3)cc2CNC(=O)[C@@H]1Cc1c[nH]c2ccccc12 [Example 146, (11S,14S,17S)-14-(4-Amino-butyl)-11-(3-amino-propyl)-25-chloro-17-(1H-indol-3-ylmethyl)-16-methyl-23-pyrazin-2-yl-2-thia-4,10,13,16,19-pentaaza-tricyclo[19.4.0.0*3,8*]pentacosa-1(25),3(8),4,6,21,23-hexaene-12,15,18-trione] | 1 µg/mL (≈ 1.28 µM) |  |
| Cc1[nH]c2ccccc2c1C[C@H]1C(=O)NCc2cc(C(F)(F)F)cc(Cl)c2Sc2ncccc2CN[C@@H](CCCN)C(=O)N[C@@H](CCCCN)C(=O)N1C [Example 74, (11S,14S,17S)-14-(4-Amino-butyl)-11-(3-amino-propyl)-25-chloro-16-methyl-17-(2-methyl-1H-indol-3-ylmethyl)-23-trifluoromethyl-2-thia-4,10,13,16,19-pentaaza-tricyclo[19.4.0.0*3,8*]pentacosa-1(25),3(8),4,6,21,23-hexaene-12,15,18-trione] | 0.25 µg/mL (≈ 0.318 µM) |  |
